Assay results taken from patent US20120035265A1, “COMPOSITIONS, METHODS, AND DEVICES FOR THE TREATMENT OF DYSMENORRHEA” (MediciNova, Inc., priority 2010, published 2012).
Read-outs that look alike come from different tables or passages of the source.

Columns and labels:
[1] = tested on: heart rate and mean blood pressure of dam; experiment: Heart rate and mean blood pressure of dam in anesthetized pregnant rats; assay type: in vivo, rat; conditions: intravenous cumulative dosing
Experimental: Rats were anesthetized with urethane, and experiments were conducted based on balloon method. Uterine activity and mean blood pressure of dam were led to a pressure amplifier via a pressure transducer. As for heart rate, pulse waves were led to tachometer. Recti-graphs were used for recording. The test substance, control substance, or positive control substance was administered intravenously and cumulatively every 15 minutes, while doses were increased gradually.

[2] = tested on: women with severe primary dysmenorrhea; experiment: Transdermal administration of MN-221 in women with severe primary dysmenorrhea (double-blind cross-over trial); assay type: in vivo, human
Experimental: The study is conducted in women, aged 15-39 years. Some of them are nulliparous and some are parous. All have regular 25-32 day cycles. They have all suffered from severe dysmenorrhea for more than one year. All the women are incapacitated for 1-2 days every month. During the first menstrual day they have continuous low abdominal pain of varying severity and in some women it is accompanied by nausea and vomiting.
All the women are informed and give their consent before the trial is started. The study is performed as a double-blind cross-over trial in which the patients are given, in random order, MN-221 transdermal patches during one menstrual period and placebo patches of identical appearance during the next period. The patients return to the hospital after the end of each menstrual flow and their dysmenorrheic symptoms are assessed. The therapeutic effect is also assessed and graded as none, weak, and moderate, over to good and very good. All women in the study have signs of ovulation—mid-cycle temperature rise—in the menstrual cycle preceding the trial. The MN-221 or the placebo is given as a five day transdermal patch during menstrual pains. MN-221 is administered as a dose in a range of about 0.02 mg/kg to 1.5 mg/Kg. The volume of the menstrual blood loss is calculated from the hemoglobin content of all the sanitary towels used by the patient and delivered to the department.

[3] = tested on: uterine muscles isolated from pregnant rabbits; experiment: Spontaneous contractions of isolated uterine muscles of pregnant rabbits (organ bath); assay type: cell-based, rabbit
Experimental: (§1) Uterine muscles of pregnant rabbits were isolated, and experiments were conducted based on organ-bath method. After specimens of uterine muscles were suspended and spontaneous contractions was stabilized, the test substance, control substance or positive control substance was administered every 10 min, while doses were increased gradually. Efficacy of drugs was evaluated by comparing the sum of uterine contraction for 10 min before and after administration of drugs, defining the former as 100%.

[4] = tested on: uterine muscles isolated from pregnant rabbits; experiment: Oxytocin-induced contractions of isolated uterine muscles of pregnant rabbits (organ bath); assay type: cell-based, rabbit
Experimental: as §1, with “oxytocin (1 mU/mL)-induced” for “spontaneous”

[5] = tested on: uterine muscle isolated from pregnant rats; experiment: Spontaneous contractions of uterine muscle isolated from pregnant rats (organ bath); assay type: cell-based; conditions: pregnant rat uterine muscle, mean ± standard error, 10 samples
Experimental: The experimental operation of this study was as reported by T. Kawarabayashi et al.^1 After each SD-strain rat on Day 21 of pregnancy were exsanguinated to death, the uterus was isolated to prepare up to 8 myometrial strips (about 4 mm×10 mm) in the direction of the longitudinal muscle, with the adhesion to the placenta being avoided.
Each myometrial strip was suspended in an organ bath containing 10 mL of a Locke-Ringer solution at 37° C. (aerated with 95% O2+5% CO2 gas) with a load of about 1.0 g. After the amplitude and frequency of the muscular spontaneous contractions became stable, distilled water was added. Five minutes later, the test, control, or positive control substance was added cumulatively with intervals of 5 minutes. The myometrial contractile force was delivered to a strain pressure amplifier through a force displacement transducer and recorded on a Rectigraph.
Considering the sum of the uterine contraction during 5 minutes after the addition of distilled water as 100%, the response rate to each concentration of the test, control, or positive control substance was calculated from the sum of the uterine contraction after each was added. Variable points (peaks) with amplitude (tension) of 0.2 g or lower were excluded from analysis. Samples showing any of the following events were not used for the study or excluded from analysis.
Microsoft® Excel 2000 (Microsoft Corp.) was used to sum up and analyze data and prepare tables and figures. Using a concentration-response curve obtained for each sample (X axis: log value of the concentration of the drug added, Y axis: response rate), a negative log value (pD2) of the concentration that inhibited the uterine contraction by 50% (EC50) was calculated from a straight line that connects the 2 concentrations above and below 50%, and converted to EC50.

pregnant sheep = experiment: Oxytocin-induced uterine contractions, cardiovascular system and general metabolism of pregnant sheep and their fetuses; assay type: in vivo
Experimental: MN-221 (0.001, 0.003, 0.01, 0.03, 0.1 and 0.3 μg/kg/min) was weighed and dissolved in physiological saline. At 123-125 days of pregnancy, sheep were infused with oxytocin (1.0 mU/kg/min) to induce uterine contractions. One hour later, MN-221 was infused for 3 consecutive hours beginning at a dose of 0.001 μg/kg/min for 30 min and increasing stepwise every 30 min to 0.3 μg/kg/min in the MN-221 group (N=4). The control received saline instead (N=4).

[6] = pregnant rabbit uterine muscles

EC50 ([3]; Oryctolagus cuniculus, spontaneous contractions, pregnant rabbit uterine muscles, read-out: pD2 values (converted)): 1.91 nM
EC50 ([4]; Oryctolagus cuniculus, oxytocin (1 mU/mL)-induced contractions, pregnant rabbit uterine muscles, read-out: pD2 values (converted)): 2.51 nM
EC50 ([5]; read-out: EC50): 1.01 ± 0.27 nM
EC50 ([5]; read-out: pD2 (converted)): 0.692 nM
SMILES: CN(C)C(=O)COc1ccc2c(c1)C[C@@H](NC[C@H](O)c1ccc(O)c(CCO)c1)CC2 [MN-221, (−)-bis(2-{[(2S)-2-({(2R)-2-hydroxy-2-[4-hydroxy-3-(2-hydroxyethyl)phenyl]ethyl}amino)-1,2,3,4-tetrahydronaphthalen-7-yl]oxy}-N,N-dimethyl-acetamide) monosulfate]
decrease in mean blood pressure of dam [1]: significantly small
effect to increase heart rate of dam [1]: significantly weaker than that of any of other agents
therapeutic response (relief) compared to placebo ([2]; five day transdermal patch, about 0.02 mg/kg to 1.5 mg/Kg): positive response with relief in women as compared to placebo
increase in heart rate, blood pressure, palpitations, tremors, and/or flushes ([2]; transdermal patch, all subjects): substantially no increase in heart rate, blood pressure, palpitations, tremors, and/or flushes
inhibitory effect against oxytocin-induced contractions of isolated uterine muscles ([3]; as worded in Example 6 (spontaneous contraction study)): demonstrated inhibitory effect
inhibitory effect against spontaneous contractions of uterine muscles, comparison [3, 6]: clearly stronger than that of HSR-81, ritodrine and terbutaline
inhibitory effect against oxytocin-induced contractions of isolated uterine muscles ([4]; oxytocin (1 mU/mL)): demonstrated inhibitory effect
inhibitory effect against oxytocin-induced contractions of uterine muscles, comparison [4, 6]: clearly stronger than that of HSR-81, ritodrine and terbutaline
maternal heart rate, diastolic and mean blood pressure, base excess, blood K+, blood lactate, plasma glucose, insulin, non-esterified fatty acid levels, fetal plasma glucose and insulin levels (pregnant sheep; MN-221 group versus control (saline) group): Significant differences between the two groups
suppression of oxytocin-induced uterine contractions (pregnant sheep; at doses over 0.03 μg/kg/min, infusion, oxytocin 1.0 mU/kg/min, pregnant sheep): more than 90%
cardiovascular and metabolic side effects (pregnant sheep; pregnant sheep and fetuses, stepwise infusion 0.001 to 0.3 μg/kg/min): reduced cardiovascular and metabolic side effects
